Data on 19 molecules can be found in patent US20250145596A1, “HETEROCYCLIC GLP-1 AGONISTS” (Gasherbrum Bio, Inc., priority 2022, published 2025).

This assay deals with T1, GLP-1 Receptor (Homo sapiens, UniProt P43220).
T1 construct: host or cells: HEK293/CRE-Luc
The experiment in a line: GLP-1R agonist cAMP stimulation assay. The class given is cell-based. The following applies: HEK293/CRE-Luc cell line stably expressing the GLP-1 Receptor; 30 min at 37° C.; cAMP dynamic 2 Kit. The method, then: Activation of GLP-1 receptor is known to stimulate cyclic AMP (cAMP) production in cells which indicates primary coupling to the Gas subunit of the G protein heterotrimeric complex.
To optimize functional activity directed toward Gas coupling, a HEK293/CRE-Luc cell line developed by HDB stably expressing the GLP-1 Receptor was used. 200× concentration of compound working solutions were prepared (Agilent Technologies Bravo) with ½ log serial dilution in 384-well Echo LDV plate (Labcyte, Cat #LP-0200). 50 nL/well 200× concentration of compound working solutions were moved to 384-well white low volume plate (Greiner, Cat #784075) using Labcyte ECHO550. 1×10^5 cells/mL HEK293/GLPlR/CRE-LUC (HD Biosciences) cell suspensions prepared with assay buffer [DPBS containing 0.5 mM IBMX (Sigma, Cat #15879) and 0.1% BSA (GENVIEW, Cat #FA016-100g)], 10 μL cell suspensions were added to each well of previous generated assay plate which already contains 50 nL compound at 200× concentration using ThermoFisher Multidrop Combi (1000 cells/well). Seal the plate and incubate at 37° C. with 5% CO2 for 30 min.
After incubation the cAMP assay signal was generated using cAMP dynamic 2 Kit (Cisbio). 5 μL cAMP-d2 working solution was added to each well, followed with 5 μL Anti-cAMP antibody-cryptate working solution added to each well using ThermoFisher Multidrop Combi. Incubate at room temperature for 1 hour protected from light. Read the fluorescence at 665 and 615 nm with Reader PerkinElmer EnVision.
% Activity=100%×(mean RLU of test sample mean RLU of vehicle control)/(mean RLU of MAX control−mean RLU of vehicle control))

pEC50: −log10 of the molar value.

T1 sequence (P43220 24-463): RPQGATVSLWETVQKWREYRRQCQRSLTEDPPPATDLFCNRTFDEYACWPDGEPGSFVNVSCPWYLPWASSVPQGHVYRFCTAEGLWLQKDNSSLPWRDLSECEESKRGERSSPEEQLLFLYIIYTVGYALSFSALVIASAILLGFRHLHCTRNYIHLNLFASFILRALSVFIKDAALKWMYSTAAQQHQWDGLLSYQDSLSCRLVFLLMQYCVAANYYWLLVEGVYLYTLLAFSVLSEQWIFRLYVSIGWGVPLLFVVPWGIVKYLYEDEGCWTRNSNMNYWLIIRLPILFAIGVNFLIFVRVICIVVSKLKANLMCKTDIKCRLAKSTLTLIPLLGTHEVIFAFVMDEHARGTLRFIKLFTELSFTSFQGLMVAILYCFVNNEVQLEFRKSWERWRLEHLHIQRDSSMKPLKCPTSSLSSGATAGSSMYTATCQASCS

Take `CC1(c2ccc(C(F)(F)F)cc2Cl)Oc2cccc(C3CCN(Cc4ncc(-c5nnc(C(F)(F)F)[nH]5)cc4CC4(C#N)CC4)CC3)c2O1` (stereo not shown) [Example 9, 1-((2-((4-(2-(2-Chloro-4-(trifluoromethyl)phenyl)-2-methylbenzo[d][1,3]dioxol-4-yl)piperidin-1-yl)methyl)-5-(5-(trifluoromethyl)-4H-1,2,4-triazol-3-yl)pyridin-3-yl)methyl)cyclopropane-1-carbonitrile]: the pEC50 was more than 9.00. The value for `CC1(c2ccc(Cl)c(F)c2)Oc2cccc(C3CCN(Cc4ncc(-c5nnc(C(F)(F)F)[nH]5)cc4CC4(C#N)CC4)CC3)c2O1` (stereo not shown) [Example 10, 1-{[2-({4-[2-(4-Chloro-3-fluorophenyl)-2-methyl-2H-1,3-benzodioxol-4-yl]piperidin-1-yl}methyl)-5-[5-(trifluoromethyl)-4H-1,2,4-triazol-3-yl]pyridin-3-yl]methyl}cyclopropane-1-carbonitrile] was more than 9.00; that for `Cc1ccc(C2(C)Oc3cccc(C4CCN(Cc5ncc(-c6nnc(C(F)(F)F)[nH]6)cc5CC5(C#N)CC5)CC4)c3O2)cn1` (stereo not shown) [Example 11, 1-{[2-({4-[2-Methyl-2-(6-methylpyridin-3-yl)-2H-1,3-benzodioxol-4-yl]piperidin-1-yl}methyl)-5-[5-(trifluoromethyl)-4H-1,2,4-triazol-3-yl]pyridin-3-yl]methyl}cyclopropane-1-carbonitrile] was more than 9.00.

`CC1(c2ccc(Cl)cc2F)Oc2c(F)ccc(C3CCN(Cc4ncc(-c5nnc(C(F)(F)F)[nH]5)cc4CC4(C#N)CC4)CC3)c2O1` (stereo not shown) [Example 12, 1-{[2-({4-[2-(4-chloro-2-fluorophenyl)-7-fluoro-2-methyl-2H-1,3-benzodioxol-4-yl]piperidin-1-yl}methyl)-5-[5-(trifluoromethyl)-4H-1,2,4-triazol-3-yl]pyridin-3-yl]methyl}cyclopropane-1-carbonitrile] had a pEC50 of more than 9.00. For `CC1(c2ccc(Cl)cc2F)Oc2ccc(F)c(C3CCN(Cc4ncc(-c5nnc(C(F)(F)F)[nH]5)cc4CC4(C#N)CC4)CC3)c2O1` (stereo not shown) [Example 15, 1-{[2-({4-[2-(4-Chloro-2-fluorophenyl)-5-fluoro-2-methyl-2H-1,3-benzodioxol-4-yl]piperidin-1-yl}methyl)-5-[5-(trifluoromethyl)-4H-1,2,4-triazol-3-yl]pyridin-3-yl]methyl}cyclopropane-1-carbonitrile] the value was more than 9.00; for `C[C@]1(c2ccc(Cl)cc2F)Oc2cccc(C3CCN(Cc4ncc(-c5nnc(C(F)F)[nH]5)cc4CC4(C#N)CC4)CC3)c2O1` [Example 17, 1-{[2-({4-[(2S)-2-(4-chloro-2-fluorophenyl)-2-methyl-2H-1,3-benzodioxol-4-yl]piperidin-1-yl}methyl)-5-[5-(difluoromethyl)-4H-1,2,4-triazol-3-yl]pyridin-3-yl]methyl}cyclopropane-1-carbonitrile], more than 9.00. For `C[C@]1(c2ccc(Cl)cc2F)Oc2cccc(C3CCN(Cc4ncc(-c5nnc(C#N)[nH]5)cc4CC4(C#N)CC4)CC3)c2O1` [Example 18, (S)-5-(6-((4-(2-(4-chloro-2-fluorophenyl)-2-methylbenzo[d][1,3]dioxol-4-yl)piperidin-1-yl)methyl)-5-((1-cyanocyclopropyl)methyl)pyridin-3-yl)-4H-1,2,4-triazole-3-carbonitrile] the value was more than 9.00; for `C[C@]1(c2ccc(Cl)cc2F)Oc2cccc(C3CCN(Cc4ncc(C(=O)O)cc4CC4(C#N)CC4)CC3)c2O1` [Example 19, (S)-6-((4-(2-(4-chloro-2-fluorophenyl)-2-methylbenzo[d][1,3]dioxol-4-yl)piperidin-1-yl)methyl)-5-((1-cyanocyclopropyl)methyl)nicotinic acid], 7.00 to 9.00. With `C[C@]1(c2ccc(Cl)cc2F)Oc2cccc(C3CCN(Cc4ncc(/C=C/C(=O)O)cc4CC4(C#N)CC4)CC3)c2O1` [Example 20, (S,E)-3-(6-((4-(2-(4-chloro-2-fluorophenyl)-2-methylbenzo[d][1,3]dioxol-4-yl)piperidin-1-yl)methyl)-5-((1-cyanocyclopropyl)methyl)pyridin-3-yl)acrylic acid], the pEC50 is more than 9.00. For `C[C@]1(c2ccc(Cl)cc2F)Oc2cccc(C3CCN(Cc4ncc(CCC(=O)O)cc4CC4(C#N)CC4)CC3)c2O1` [Example 21, (S)-3-(6-((4-(2-(4-chloro-2-fluorophenyl)-2-methylbenzo[d][1,3]dioxol-4-yl)piperidin-1-yl)methyl)-5-((1-cyanocyclopropyl)methyl)pyridin-3-yl)propanoic acid] the value was 7.00 to 9.00; for `CC1(c2ccc(Cl)cc2F)Oc2cccc(C3CCN(Cc4ncc(-c5nnc(C(F)(F)F)[nH]5)cc4CC4(C#N)CC4)CC3(F)F)c2O1` (stereo not shown) [Example 22, 1-{[2-({4-[2-(4-chloro-2-fluorophenyl)-2-methyl-2H-1,3-benzodioxol-4-yl]-3,3-difluoropiperidin-1-yl}methyl)-5-[5-(trifluoromethyl)-4H-1,2,4-triazol-3-yl]pyridin-3-yl]methyl}cyclopropane-1-carbonitrile], more than 9.00; for `N#CC1(Cc2cc(-c3nnc(C(F)(F)F)[nH]3)cnc2CN2CCC(c3cccc(OCc4ccc(Cl)cc4F)n3)CC2)CC1` [Example 32, 1-({2-[(4-{6-[(4-chloro-2-fluorophenyl)methoxy]pyridin-2-yl}piperidin-1-yl)methyl]-5-[5-(trifluoromethyl)-4H-1,2,4-triazol-3-yl]pyridin-3-yl}methyl)cyclopropane-1-carbonitrile], more than 9.00. For `N#CC1(Cc2cc(-c3nnc(C(F)(F)F)[nH]3)cnc2CN2CCC(c3ccc(F)c(OCc4ccc(Cl)cc4F)n3)CC2)CC1` [Example 33, 1-((2-((4-(6-((4-chloro-2-fluorobenzyl)oxy)-5-fluoropyridin-2-yl)piperidin-1-yl)methyl)-5-(5-(trifluoromethyl)-4H-1,2,4-triazol-3-yl)pyridin-3-yl)methyl)cyclopropane-1-carbonitrile] the value was more than 9.00; for `N#CC1(Cc2cc(-c3nnc(C(F)(F)F)[nH]3)cnc2CN2CCC(c3ccnc(OCc4ccc(Cl)cc4F)n3)CC2)CC1` [Example 34, 1-({2-[(4-{2-[(4-chloro-2-fluorophenyl)methoxy]pyrimidin-4-yl}piperidin-1-yl)methyl]-5-[5-(trifluoromethyl)-4H-1,2,4-triazol-3-yl]pyridin-3-yl}methyl)cyclopropane-1-carbonitrile], more than 9.00. The molecule `N#CC1(Cc2cc(-c3nnc(C(F)(F)F)[nH]3)cnc2CN2CCC(c3nc(OCc4ccc(Cl)cc4F)ncc3F)CC2)CC1` [Example 35, 1-({2-[(4-{2-[(4-chloro-2-fluorophenyl)methoxy]-5-fluoropyrimidin-4-yl}piperidin-1-yl)methyl]-5-[5-(trifluoromethyl)-4H-1,2,4-triazol-3-yl]pyridin-3-yl}methyl)cyclopropane-1-carbonitrile] had a pEC50 of 7.00 to 9.00. On to `N#CC1(Cc2cc(-c3nnc(C(F)(F)F)[nH]3)cnc2CN2CCC(c3ncc(F)c(OCc4ccc(Cl)cc4F)n3)CC2)CC1` [Example 36, 1-((2-((4-(4-((4-chloro-2-fluorobenzyl)oxy)-5-fluoropyrimidin-2-yl)piperidin-1-yl)methyl)-5-(5-(trifluoromethyl)-4H-1,2,4-triazol-3-yl)pyridin-3-yl)methyl)cyclopropane-1-carbonitrile], for which the pEC50 is more than 9.00. The value for `N#CC1(Cc2cc(-c3nnc(C(F)(F)F)[nH]3)cnc2CN2CCC(c3cccnc3OCc3ccc(Cl)cc3F)CC2)CC1` [Example 37, 1-({2-[(4-{2-[(4-chloro-2-fluorophenyl)methoxy]pyridin-3-yl}piperidin-1-yl)methyl]-5-[5-(trifluoromethyl)-4H-1,2,4-triazol-3-yl]pyridin-3-yl}methyl)cyclopropane-1-carbonitrile] was more than 9.00; that for `N#CC1(Cc2cc(-c3nnc(C(F)(F)F)[nH]3)cnc2CN2CCC(c3cccc4c3OC(c3ccc(Cl)cc3F)CO4)CC2)CC1` (stereo not shown) [Example 38, 1-{[2-({4-[3-(4-chloro-2-fluorophenyl)-2,3-dihydro-1,4-benzodioxin-5-yl]piperidin-1-yl}methyl)-5-[5-(trifluoromethyl)-4H-1,2,4-triazol-3-yl]pyridin-3-yl]methyl}cyclopropane-1-carbonitrile] was more than 9.00; that for `N#CC1(Cc2cc(-c3nnc(C(F)(F)F)[nH]3)cnc2CN2CCC(c3cccc4c3OC[C@@H](c3ccc(Cl)cc3)O4)CC2)CC1` [Example 39, 1-{[2-({4-[(2R)-2-(4-chlorophenyl)-2,3-dihydro-1,4-benzodioxin-5-yl]piperidin-1-yl}methyl)-5-[5-(trifluoromethyl)-4H-1,2,4-triazol-3-yl]pyridin-3-yl]methyl}cyclopropane-1-carbonitrile] was 7.00 to 9.00.
